Reference: ChEMBL document CHEMBL1201862, “PubChem BioAssay data set” (2004)
Activity calls are given as the source filed them.

Experiments:
[1] = biological target: Dual specificity tyrosine-phosphorylation-regulated kinase 1A (Rattus norvegicus, UniProt Q63470); format: biochemical, Homo sapiens
[2] = biological target: T1, Tyrosine-protein phosphatase non-receptor type 22 (Homo sapiens, UniProt Q9Y2R2); test: PTPN22 enzyme inhibitors – biochemical, fluorescence, LYP catalytic domain, selectivity assay for LMPTP inhibitor project, dose response (AID 652006); format: functional; settings: read-out: IC50_Mean
T1 sequence (Q9Y2R2 whole entry): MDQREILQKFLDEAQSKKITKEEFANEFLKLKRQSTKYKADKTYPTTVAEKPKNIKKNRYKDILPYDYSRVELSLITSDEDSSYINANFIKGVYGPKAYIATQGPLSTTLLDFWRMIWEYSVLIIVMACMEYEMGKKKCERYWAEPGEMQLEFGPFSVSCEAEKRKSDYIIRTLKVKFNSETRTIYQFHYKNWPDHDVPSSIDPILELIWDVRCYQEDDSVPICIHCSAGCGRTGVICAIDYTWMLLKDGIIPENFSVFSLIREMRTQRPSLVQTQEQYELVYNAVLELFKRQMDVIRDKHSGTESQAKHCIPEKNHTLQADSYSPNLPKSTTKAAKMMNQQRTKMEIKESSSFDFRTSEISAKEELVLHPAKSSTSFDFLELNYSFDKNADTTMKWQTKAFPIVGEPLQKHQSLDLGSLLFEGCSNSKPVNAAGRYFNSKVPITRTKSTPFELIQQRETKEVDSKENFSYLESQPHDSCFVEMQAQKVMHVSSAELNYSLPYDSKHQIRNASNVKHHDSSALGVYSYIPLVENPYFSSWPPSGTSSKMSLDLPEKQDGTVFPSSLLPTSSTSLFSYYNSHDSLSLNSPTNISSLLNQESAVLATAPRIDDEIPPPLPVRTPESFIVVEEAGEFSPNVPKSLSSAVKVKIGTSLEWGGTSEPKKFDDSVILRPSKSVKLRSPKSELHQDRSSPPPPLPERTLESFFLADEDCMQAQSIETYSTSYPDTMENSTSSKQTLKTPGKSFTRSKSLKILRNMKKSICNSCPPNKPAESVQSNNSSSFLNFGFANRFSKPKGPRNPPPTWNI

[3] = biological target: T2, Low molecular weight phosphotyrosine protein phosphatase (Homo sapiens, UniProt P24666); format: functional; settings: read-out: IC50_Mean
T2 sequence (P24666 whole entry): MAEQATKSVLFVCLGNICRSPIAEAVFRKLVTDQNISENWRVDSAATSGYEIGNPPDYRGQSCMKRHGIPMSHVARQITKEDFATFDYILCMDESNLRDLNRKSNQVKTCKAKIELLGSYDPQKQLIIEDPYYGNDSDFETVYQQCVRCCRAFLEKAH

[4] = biological target: T3, Short transient receptor potential channel 4 (Mus musculus, UniProt Q9QUQ5); test: block of DAMGO-driven TRPC4 calcium entry – cell-based, HEK293 TRPC4/mu-opioid, Fluo-4 calcium, dose response (AID 434942); format: functional;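 also: potency of inhibitors blocking the TRPC4 calcium response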
T3 sequence (Q9QUQ5 whole entry): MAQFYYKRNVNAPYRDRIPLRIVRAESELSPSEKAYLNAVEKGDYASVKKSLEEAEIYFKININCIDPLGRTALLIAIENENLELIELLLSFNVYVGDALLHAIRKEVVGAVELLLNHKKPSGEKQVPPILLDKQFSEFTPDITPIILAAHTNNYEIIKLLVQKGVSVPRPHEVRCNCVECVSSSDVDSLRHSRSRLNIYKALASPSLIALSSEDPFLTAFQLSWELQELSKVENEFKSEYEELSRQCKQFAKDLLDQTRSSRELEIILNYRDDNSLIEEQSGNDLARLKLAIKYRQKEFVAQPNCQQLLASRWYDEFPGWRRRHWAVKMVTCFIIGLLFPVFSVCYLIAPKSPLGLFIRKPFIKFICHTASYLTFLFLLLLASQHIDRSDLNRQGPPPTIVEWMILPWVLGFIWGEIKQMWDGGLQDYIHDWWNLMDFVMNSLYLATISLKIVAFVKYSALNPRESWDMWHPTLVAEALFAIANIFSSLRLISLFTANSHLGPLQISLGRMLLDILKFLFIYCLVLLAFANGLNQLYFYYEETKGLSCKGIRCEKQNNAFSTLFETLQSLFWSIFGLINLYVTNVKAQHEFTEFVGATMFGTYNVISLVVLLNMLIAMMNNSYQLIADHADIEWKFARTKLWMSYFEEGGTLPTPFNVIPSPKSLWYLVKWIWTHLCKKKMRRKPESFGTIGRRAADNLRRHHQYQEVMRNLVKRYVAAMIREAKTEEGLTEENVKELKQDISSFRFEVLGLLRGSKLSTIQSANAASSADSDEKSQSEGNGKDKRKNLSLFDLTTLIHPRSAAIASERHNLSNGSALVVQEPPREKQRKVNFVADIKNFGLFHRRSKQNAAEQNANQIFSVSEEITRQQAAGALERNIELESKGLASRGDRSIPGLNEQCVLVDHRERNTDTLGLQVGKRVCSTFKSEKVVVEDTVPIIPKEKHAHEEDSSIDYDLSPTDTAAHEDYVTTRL

[5] = biological target: T2, Low molecular weight phosphotyrosine protein phosphatase; format: functional; settings: read-out: IC50_Mean; remark: listed apart in the source
[6] = biological target: DNA dC->dU-editing enzyme APOBEC-3G (Homo sapiens, UniProt Q9HC16); test: inhibition of APOBEC3G ssDNA deamination – biochemical, fluorescence, single-stranded DNA substrate, SAR follow-up (AID 602136); format: functional; settings: read-out: IC50_Mean
[7] = biological target: T4, Rac GTPase-activating protein 1 (Homo sapiens, UniProt Q9H0H5); test: blockers of MgcRacGAP-driven Rac1 GTP hydrolysis – biochemical, ADP Hunter fluorescence, primary and confirmatory, confirmation (AID 624330); format: functional
T4 sequence (Q9H0H5 whole entry): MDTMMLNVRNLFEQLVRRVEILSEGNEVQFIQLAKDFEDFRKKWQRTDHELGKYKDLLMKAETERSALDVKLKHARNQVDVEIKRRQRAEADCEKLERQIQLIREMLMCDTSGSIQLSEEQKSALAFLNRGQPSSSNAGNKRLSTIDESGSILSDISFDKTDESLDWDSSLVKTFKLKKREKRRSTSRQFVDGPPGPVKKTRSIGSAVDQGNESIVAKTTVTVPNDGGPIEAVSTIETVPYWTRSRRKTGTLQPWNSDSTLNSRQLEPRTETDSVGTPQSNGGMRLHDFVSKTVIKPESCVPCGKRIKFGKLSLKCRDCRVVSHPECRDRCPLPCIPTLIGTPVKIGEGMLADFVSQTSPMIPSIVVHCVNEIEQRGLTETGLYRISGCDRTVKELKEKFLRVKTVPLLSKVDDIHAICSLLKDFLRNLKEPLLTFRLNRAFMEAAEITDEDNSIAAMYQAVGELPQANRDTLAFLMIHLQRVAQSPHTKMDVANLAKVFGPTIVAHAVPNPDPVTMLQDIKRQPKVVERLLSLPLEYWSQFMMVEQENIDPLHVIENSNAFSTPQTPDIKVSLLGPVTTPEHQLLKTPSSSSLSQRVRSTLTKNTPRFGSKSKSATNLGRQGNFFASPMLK

[8] = biological target: T5, Coagulation factor XII (Homo sapiens, UniProt P00748); format: functional;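 also: activated factor XIIa alpha cleaving a fluorogenic AMC peptide substrate; inhibitor potency from loss of enzyme activity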
T5 sequence (P00748 whole entry): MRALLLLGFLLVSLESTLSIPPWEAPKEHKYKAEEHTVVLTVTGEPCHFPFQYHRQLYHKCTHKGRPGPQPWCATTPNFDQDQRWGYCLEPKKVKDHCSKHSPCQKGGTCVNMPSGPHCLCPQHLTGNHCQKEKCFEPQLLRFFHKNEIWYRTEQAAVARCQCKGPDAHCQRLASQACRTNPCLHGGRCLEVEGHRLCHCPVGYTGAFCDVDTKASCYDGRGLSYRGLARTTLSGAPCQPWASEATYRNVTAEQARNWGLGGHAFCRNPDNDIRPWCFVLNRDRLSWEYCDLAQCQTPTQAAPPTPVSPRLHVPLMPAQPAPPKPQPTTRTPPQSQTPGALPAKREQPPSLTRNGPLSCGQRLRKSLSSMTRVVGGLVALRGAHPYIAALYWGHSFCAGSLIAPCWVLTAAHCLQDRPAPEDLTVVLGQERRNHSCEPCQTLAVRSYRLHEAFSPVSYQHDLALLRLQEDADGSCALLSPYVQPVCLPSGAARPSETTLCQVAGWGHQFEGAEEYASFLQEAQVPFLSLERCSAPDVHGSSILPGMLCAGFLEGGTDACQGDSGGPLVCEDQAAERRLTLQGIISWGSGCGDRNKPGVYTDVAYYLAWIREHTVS

[9] = biological target: DNA dC->dU-editing enzyme APOBEC-3A (Homo sapiens, UniProt P31941); test: SAR analysis of small molecule inhibitors of APOBEC3A DNA Deaminase via a fluorescence-based single-stranded DNA deaminase assay.; format: functional; settings: read-out: IC50_Mean
[10] = blockers of CRF-binding protein–CRF-R2 complex – cell-based, uHTS hits, 384-well, dose response (AID 651639); format: functional, Homo sapiens; settings: read-out: IC50_Mean
[11] = biological target: T6, Corticotropin-releasing factor receptor 2/Corticotropin-releasing factor-binding protein (Homo sapiens, UniProt P24387+Q13324); test: Dose Response confirmation of uHTS hits for small molecule antagonists of the CRF-binding protein and CRF-R2 receptor complex.; format: functional; settings: read-out: IC50_Mean
T6 sequence (Q13324 whole entry): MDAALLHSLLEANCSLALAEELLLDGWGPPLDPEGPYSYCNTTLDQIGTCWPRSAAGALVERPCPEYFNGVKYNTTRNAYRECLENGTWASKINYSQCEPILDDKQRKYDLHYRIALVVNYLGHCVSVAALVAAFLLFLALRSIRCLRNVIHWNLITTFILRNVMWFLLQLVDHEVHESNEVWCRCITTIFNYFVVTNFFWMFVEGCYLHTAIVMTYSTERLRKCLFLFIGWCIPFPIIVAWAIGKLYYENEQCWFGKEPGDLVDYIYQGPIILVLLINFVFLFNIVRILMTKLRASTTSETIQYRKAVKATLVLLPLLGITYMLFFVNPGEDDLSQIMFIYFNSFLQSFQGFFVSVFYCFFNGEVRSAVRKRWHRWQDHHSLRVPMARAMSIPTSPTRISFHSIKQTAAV
T6 sequence (P24387 whole entry): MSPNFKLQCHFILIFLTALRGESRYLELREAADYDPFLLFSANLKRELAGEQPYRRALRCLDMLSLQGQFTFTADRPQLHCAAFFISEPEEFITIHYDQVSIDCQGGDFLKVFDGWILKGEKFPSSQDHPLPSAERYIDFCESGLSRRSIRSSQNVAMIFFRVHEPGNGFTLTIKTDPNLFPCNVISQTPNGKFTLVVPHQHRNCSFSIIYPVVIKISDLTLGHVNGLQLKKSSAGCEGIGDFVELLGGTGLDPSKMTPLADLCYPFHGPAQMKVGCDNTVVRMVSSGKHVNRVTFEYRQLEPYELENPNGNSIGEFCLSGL

[12] = biological target: T6, Corticotropin-releasing factor receptor 2/Corticotropin-releasing factor-binding protein; test: activators of CRF receptor 2 with binding protein – uHTS hits, confirmation (AID 602473); format: functional; settings: read-out: EC50_Mean
[13] = test system: Vero; test: cells; format: functional; settings: Chlorocebus sabaeus
[14] = biological target: Melanocortin receptor 4 (Homo sapiens, UniProt P32245); test: inhibitors of MC4R cAMP signaling – cell-based, TR-FRET, biased antagonists, dose response (AID 602298); format: functional;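 also: antagonist potency against agonist-stimulated cAMP production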
[15] = cAMP pathway inhibition in counterscreen cell line – TR-FRET cAMP detection, counter-screen for MC4R biased antagonist project, dose response (AID 602305); format: functional, cell-based;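 also: U2OS cells stimulated with forskolin near its EC80 as the cAMP inducer; potency is for inhibition of forskolin-stimulated cAMP signaling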
[16] = biological target: T7, Polyadenylate-binding protein 1 (Homo sapiens, UniProt P11940); test: MLLE binding blockers, Cy5 peptide tracer – biochemical, fluorescence polarization, Cy5-PAM2 peptide, secondary, miRNA deadenylation inhibitor project, dose response (AID 602260); format: functional; settings: read-out: IC50_Mean
[17] = biological target: Mitochondrial peptide methionine sulfoxide reductase (Bos taurus, UniProt P54149); test: Absorbance-based biochemical high throughput dose response assay for activators of Methionine sulfoxide reductase A (MsrA).; format: functional
[18] = biological target: T7, Polyadenylate-binding protein 1; test: MLLE domain peptide-binding blockers, IC50 – biochemical, fluorescence polarization, FITC-PAM2 peptide, dose response (AID 602259); format: functional; settings: read-out: IC50_Mean
[19] = biological target: Genome polyprotein (dengue virus type 2, UniProt P29990); test: flavivirus cap methylation enzyme inhibition – biochemical, confirmation dose response, primary screen (AID 588689); format: functional
[20] = THP-1 cell cytotoxicity, cytotoxicity control, set 4 (AID 504911); format: functional; settings: Mycobacterium tuberculosis
[21] = biological target: T8, Probable nicotinate-nucleotide adenylyltransferase (Staphylococcus aureus (strain N315), UniProt P65502); format: functional, Staphylococcus aureus subsp. aureus N315;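 as to IC50 Mean: confirmatory dose-response retesting of NadD inhibitor hits first found in an ultra-high-throughput screen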
[22] = biological target: T8, Probable nicotinate-nucleotide adenylyltransferase; format: functional, Staphylococcus aureus subsp. aureus N315; settings: read-out: IC50_Mean
[23] = biological target: Aryl hydrocarbon receptor (Homo sapiens, UniProt P35869); settings: Potency;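 also: confirmatory quantitative high-throughput screen measuring activation of the AhR signaling pathway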
[24] = biological target: Cytochrome P450 3A4 (Homo sapiens, UniProt P08684); settings: Potency;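 also: confirmatory qHTS run detecting inhibitors and substrates of CYP3A4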
Chain of Cytochrome P450 3A4 (P08684 whole entry): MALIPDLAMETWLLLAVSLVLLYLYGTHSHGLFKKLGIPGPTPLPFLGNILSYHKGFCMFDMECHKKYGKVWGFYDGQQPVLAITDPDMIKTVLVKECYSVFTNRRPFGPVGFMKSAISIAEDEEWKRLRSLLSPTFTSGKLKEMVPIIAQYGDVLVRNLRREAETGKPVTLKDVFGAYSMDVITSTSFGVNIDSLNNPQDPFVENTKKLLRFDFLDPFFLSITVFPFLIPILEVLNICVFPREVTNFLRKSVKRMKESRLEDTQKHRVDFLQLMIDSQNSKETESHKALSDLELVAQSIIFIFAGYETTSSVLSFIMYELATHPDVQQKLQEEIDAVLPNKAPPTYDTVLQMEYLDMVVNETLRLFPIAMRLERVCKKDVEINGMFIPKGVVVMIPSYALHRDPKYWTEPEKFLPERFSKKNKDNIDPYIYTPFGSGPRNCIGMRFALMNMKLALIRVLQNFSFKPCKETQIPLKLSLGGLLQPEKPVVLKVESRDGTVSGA

T7 sequence (P11940 whole entry): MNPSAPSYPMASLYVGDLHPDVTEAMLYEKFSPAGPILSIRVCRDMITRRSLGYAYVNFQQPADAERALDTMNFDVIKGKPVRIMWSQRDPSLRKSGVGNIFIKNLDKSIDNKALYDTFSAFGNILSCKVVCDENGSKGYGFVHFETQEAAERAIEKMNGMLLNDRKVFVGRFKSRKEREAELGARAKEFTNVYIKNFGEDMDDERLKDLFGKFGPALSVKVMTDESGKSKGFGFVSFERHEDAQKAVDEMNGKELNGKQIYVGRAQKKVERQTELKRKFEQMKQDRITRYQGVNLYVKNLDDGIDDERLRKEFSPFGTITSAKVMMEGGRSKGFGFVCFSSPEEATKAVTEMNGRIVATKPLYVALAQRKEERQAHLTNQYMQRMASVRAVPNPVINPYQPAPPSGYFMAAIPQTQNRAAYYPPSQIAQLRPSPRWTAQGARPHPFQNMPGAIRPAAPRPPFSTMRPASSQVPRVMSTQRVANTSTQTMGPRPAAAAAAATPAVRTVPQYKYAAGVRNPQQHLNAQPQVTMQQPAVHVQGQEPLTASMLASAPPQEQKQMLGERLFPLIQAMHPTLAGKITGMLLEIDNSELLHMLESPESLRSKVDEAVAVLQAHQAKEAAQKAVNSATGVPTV
T8 sequence (P65502 whole entry): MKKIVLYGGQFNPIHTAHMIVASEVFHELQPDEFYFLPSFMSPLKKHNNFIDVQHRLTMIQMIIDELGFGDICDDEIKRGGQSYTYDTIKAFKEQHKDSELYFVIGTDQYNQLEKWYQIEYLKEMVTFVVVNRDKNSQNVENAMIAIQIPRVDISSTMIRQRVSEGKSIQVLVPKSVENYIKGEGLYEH
Chain of Aryl hydrocarbon receptor (P35869 whole entry): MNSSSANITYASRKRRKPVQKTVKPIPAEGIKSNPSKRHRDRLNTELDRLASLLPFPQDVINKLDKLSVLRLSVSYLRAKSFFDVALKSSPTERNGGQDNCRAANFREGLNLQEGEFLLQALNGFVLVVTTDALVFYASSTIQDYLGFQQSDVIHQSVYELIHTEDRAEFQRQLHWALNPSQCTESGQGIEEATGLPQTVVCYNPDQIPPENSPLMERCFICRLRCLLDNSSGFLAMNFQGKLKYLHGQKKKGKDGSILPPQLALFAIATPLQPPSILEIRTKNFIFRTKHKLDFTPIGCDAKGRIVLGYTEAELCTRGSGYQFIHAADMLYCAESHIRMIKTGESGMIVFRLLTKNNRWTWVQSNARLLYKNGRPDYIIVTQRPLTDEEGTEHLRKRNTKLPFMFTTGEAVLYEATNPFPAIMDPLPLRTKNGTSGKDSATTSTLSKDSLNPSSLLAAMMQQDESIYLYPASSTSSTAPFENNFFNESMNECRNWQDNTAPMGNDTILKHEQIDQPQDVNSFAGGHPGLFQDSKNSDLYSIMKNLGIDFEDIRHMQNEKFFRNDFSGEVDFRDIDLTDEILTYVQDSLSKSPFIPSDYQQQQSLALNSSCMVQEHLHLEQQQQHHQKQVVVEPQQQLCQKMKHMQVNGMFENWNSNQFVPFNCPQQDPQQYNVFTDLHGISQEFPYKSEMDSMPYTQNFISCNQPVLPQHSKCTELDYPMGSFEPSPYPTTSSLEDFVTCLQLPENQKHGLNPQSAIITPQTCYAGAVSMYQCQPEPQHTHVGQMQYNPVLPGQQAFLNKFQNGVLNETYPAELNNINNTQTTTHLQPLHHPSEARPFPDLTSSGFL
Chain of DNA dC->dU-editing enzyme APOBEC-3G (Q9HC16 whole entry): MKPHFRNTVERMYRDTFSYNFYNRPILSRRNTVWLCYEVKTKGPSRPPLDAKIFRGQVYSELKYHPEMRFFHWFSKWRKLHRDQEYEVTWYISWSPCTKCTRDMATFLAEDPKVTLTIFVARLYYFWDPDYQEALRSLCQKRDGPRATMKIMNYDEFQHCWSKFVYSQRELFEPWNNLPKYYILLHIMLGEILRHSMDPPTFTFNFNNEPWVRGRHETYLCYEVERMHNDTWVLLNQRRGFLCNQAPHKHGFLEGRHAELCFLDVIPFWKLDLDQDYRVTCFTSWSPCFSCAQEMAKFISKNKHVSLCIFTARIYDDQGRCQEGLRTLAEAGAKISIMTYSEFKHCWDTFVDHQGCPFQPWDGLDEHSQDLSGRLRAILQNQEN
Chain of DNA dC->dU-editing enzyme APOBEC-3A (P31941 whole entry): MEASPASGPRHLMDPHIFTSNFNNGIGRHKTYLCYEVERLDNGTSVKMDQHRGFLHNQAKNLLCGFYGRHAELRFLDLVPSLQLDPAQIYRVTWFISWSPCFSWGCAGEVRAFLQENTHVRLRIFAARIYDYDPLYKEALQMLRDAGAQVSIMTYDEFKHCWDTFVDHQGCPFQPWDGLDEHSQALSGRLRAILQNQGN
Chain of Genome polyprotein (P29990 2492-3391 limits assumed): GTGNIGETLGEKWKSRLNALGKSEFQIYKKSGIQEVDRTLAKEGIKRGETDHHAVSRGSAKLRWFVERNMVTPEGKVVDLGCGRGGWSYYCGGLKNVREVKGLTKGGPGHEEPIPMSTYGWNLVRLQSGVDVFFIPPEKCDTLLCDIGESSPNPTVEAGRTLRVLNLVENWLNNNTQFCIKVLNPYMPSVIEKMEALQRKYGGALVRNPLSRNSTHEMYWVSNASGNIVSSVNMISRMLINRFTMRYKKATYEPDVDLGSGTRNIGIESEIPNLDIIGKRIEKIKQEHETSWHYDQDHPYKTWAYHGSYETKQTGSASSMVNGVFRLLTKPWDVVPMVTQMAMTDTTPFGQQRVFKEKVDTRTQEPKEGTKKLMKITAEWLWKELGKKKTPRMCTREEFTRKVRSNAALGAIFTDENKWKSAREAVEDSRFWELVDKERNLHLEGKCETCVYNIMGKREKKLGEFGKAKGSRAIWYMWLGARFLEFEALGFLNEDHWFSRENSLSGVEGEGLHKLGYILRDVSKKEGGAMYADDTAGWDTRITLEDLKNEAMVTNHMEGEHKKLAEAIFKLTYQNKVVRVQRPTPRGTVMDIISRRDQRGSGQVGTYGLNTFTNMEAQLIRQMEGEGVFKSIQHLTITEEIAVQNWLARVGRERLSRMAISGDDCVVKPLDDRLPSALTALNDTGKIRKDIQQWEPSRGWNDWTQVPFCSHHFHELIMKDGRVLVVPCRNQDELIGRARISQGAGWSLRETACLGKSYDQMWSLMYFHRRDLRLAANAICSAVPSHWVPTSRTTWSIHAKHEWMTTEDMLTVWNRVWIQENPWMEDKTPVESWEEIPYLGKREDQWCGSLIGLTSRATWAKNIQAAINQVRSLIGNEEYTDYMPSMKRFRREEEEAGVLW
Chain of Melanocortin receptor 4 (P32245 whole entry): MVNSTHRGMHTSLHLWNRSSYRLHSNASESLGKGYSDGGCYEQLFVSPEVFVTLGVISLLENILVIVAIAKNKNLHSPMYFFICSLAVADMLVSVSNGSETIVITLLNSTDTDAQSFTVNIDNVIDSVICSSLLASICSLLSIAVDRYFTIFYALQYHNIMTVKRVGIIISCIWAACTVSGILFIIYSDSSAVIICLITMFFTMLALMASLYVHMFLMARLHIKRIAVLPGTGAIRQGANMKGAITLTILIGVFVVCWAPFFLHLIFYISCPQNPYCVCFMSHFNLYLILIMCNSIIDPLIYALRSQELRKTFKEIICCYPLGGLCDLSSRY
Chain of Mitochondrial peptide methionine sulfoxide reductase (P54149 whole entry, the tested form may be a part): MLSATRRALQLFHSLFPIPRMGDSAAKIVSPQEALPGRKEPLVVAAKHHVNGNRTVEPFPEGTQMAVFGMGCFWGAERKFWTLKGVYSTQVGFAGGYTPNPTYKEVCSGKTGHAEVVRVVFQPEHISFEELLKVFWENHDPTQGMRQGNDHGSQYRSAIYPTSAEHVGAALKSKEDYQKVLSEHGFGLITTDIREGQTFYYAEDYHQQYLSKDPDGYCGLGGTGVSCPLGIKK

## Cc1cc(N2CCC(C)CC2)nc2cccc(O)c12
[1]
  AC50: 14.3 µM (active)
[2]
  IC50: 80 µM (inactive)
[3]
  IC50: 9.87 µM (active)
[4]
  EC50: 0.335 µM (active)
[5]
  IC50: 13.2 µM (active)

## O=C(CNCc1ccccn1)Nc1cc(C(F)(F)F)ccc1N1CCOCC1
[6]
  IC50: > 99 µM (inactive)
[7]
  IC50: 138 µM (active)
[8]
  IC50: > 50 µM (inactive)
[9]
  IC50: > 99 µM (inactive)

## CC(=O)NC(Cc1ccc(C)cc1)C(=O)NC1CCN(c2ncccc2[N+](=O)[O-])CC1 (centres undefined)
[10]
  IC50: 5.07 µM (active)
[11]
  IC50: 2.09 µM (active)
[12]
  EC50: > 53 µM (inactive)

## COC(=O)C=C1CCC2C3CCC4=CC(=O)C(Br)CC4(C)C3C(=O)CC12C (centres undefined)
[13]
  CC50: > 25 µM (active)
[14]
  IC50: > 64.6 µM (inactive)
[15]
  IC50: > 64.6 µM (inactive)

## O=C1c2ccccc2C(=O)c2c(/C=C/N3CCCCC3)ccnc21
[16]
  IC50: > 66 µM (inactive)
[17]
  EC50: > 104 µM (inactive)
[18]
  IC50: 50.2 µM (inactive)
[19]
  IC50: 61.6 µM (active)

## COc1cccc(NC(=O)CSc2nc3c(c(=O)[nH]2)CCC3)c1
[20]
  CC50: > 100 µM (active)

## Nc1[nH]c(C(=O)c2ccccc2)c(-c2ccccc2Br)c1C(=O)NCc1ccc(-c2ccccc2)cc1
[21]
  IC50: 26.5 µM (active)
[22]
  IC50: 65.9 µM (active)

## COc1ccc2nc(N)sc2c1
[23]
  AC50: 44.7 µM (inconclusive)
[24]
  AC50: 31.6 µM (inconclusive)
